These results are taken from patent US20090306147A1, “BIOLOGICAL EFFICACY OF AGROCHEMICAL COMPOSITIONS ON APPLICATION IN THE GROWTH SUBSTRATE SUITABLE FORMULATIONS AND USE THEREOF” (priority 2006, published 2009).

Each structure is given as a SMILES string.

What all share (assay type): in vivo
Data set [1] concerns green peach aphid (Myzus persicae). The experiment in a line: Watering test on bell-pepper plant, green peach aphid (Use Example 3). The method, then:
After sowing, a bell-pepper plant is grown for about 30 days in a 1 litre vessel. The plant is then watered with 60 ml of a solution having the stated concentration of insecticidally active compound and adjuvant and, after the stated period of time, infected with the green peach aphid (Myzus persicae). After the desired period of time, the kill in % is determined. 100% means that all aphids have been killed; 0% means that none of the aphids have been killed. The same test without added adjuvant served as a control.

The test system is the same in data set [2]. Nature of the data set: Watering test on cabbage plant, green peach aphid (Use Example 5). To be noted: infection 3 d after application, 7 d after infection. The method, then:
After sowing, a cabbage plant (Brassica oleracea) is grown for about 10 days in a 1 litre vessel. The plant is then watered with 60 ml of a solution having the stated concentration of insecticidally active compound and adjuvant and, after the stated period of time, infected with the green peach aphid (Myzus persicae). After the desired period of time, the kill in % is determined. 100% means that all aphids have been killed; 0% means that none of the aphids have been killed. The same test without added adjuvant served as a control.

The test system of data set [3] is diamond-back moth (Plutella xylostella). Nature of the data set: Watering test on cabbage plant, diamond-back moth caterpillars (Use Example 4). To be noted: infection 1 d after application, 7 d after infection. The method, then:
After sowing, a cabbage plant (Brassica oleracea) is grown for about 14 days in a 1 litre vessel. The plant is then watered with 60 ml of a solution having the stated concentration of insecticidally active compound and adjuvant and, after the stated period of time, infected with the caterpillars of the diamond-back moth (Plutella xylostella). After the desired period of time, the kill in % is determined. 100% means that all caterpillars have been killed; 0% means that none of the caterpillars have been killed. The same test without added adjuvant served as a control.

Take `O=[N+]([O-])NC1=NCCN1Cc1ccc(Cl)nc1` [(II-7), imidacloprid]: the Mortality result in data set [1] (0.0039 mg/l of soil, adjuvant (I-2) 1000 mg/l, infection 3 d after application, 7 d after infection) is “D (from 76 to 100)”; in data set [1] (0.0039 mg/l of soil, adjuvant (I-3) 2000 mg/l watering solution, infection 3 d after application, 4 d after infection), “D (from 76 to 100)”; in data set [1] (0.0039 mg/l of soil, adjuvant (I-3) 2000 mg/l, infection 3 d after application, 7 d after infection), “D (from 76 to 100)”; in data set [1] (0.0039 mg/l of soil, adjuvant (I-3) 2000 mg/l, infection 21 d after application, 4 d after infection) it was “D (from 76 to 100)”; in data set [1] (0.0039 mg/l of soil, adjuvant (I-3) 2000 mg/l, infection 21 d after application, 7 d after infection), “D (from 76 to 100)”; in data set [1] (0.0039 mg/l of soil, adjuvant (I-5) 2000 mg/l watering solution, infection 3 d after application, 4 d after infection) it was “D (from 76 to 100)”. In addition, the Mortality entry in data set [1] (0.0039 mg/l of soil, adjuvant (I-5) 2000 mg/l, infection 3 d after application, 7 d after infection) was “D (from 76 to 100)”; in data set [1] (0.0039 mg/l of soil, adjuvant (I-5) 2000 mg/l, infection 21 d after application, 4 d after infection), “D (from 76 to 100)”; in data set [1] (0.0039 mg/l of soil, adjuvant (I-5) 2000 mg/l, infection 21 d after application, 7 d after infection) it was “D (from 76 to 100)”; in data set [1] (0.0039 mg/l of soil, no adjuvant, infection 3 d after application, 4 d after infection), “B (from 26 to 50%)”; in data set [1] (0.0039 mg/l of soil, no adjuvant, infection 3 d after application, 7 d after infection), “C (from 51 to 75%)”; in data set [1] (0.0039 mg/l of soil, no adjuvant, infection 21 d after application, 4 d after infection) it was “C (from 51 to 75%)”. Also, the Mortality result is recorded as “C (from 51 to 75%)” in data set [1] (0.0039 mg/l of soil, no adjuvant, infection 21 d after application, 7 d after infection); “B (from 26 to 50%)” in data set [2] (0.00195 mg/l of soil, adjuvant (I-2) 1000 mg/l); “A (from 0 to 25%)” in data set [2] (0.00195 mg/l of soil, no adjuvant); “C (from 51 to 75%)” in data set [2] (0.0039 mg/l of soil, adjuvant (I-2) 1000 mg/l); “B (from 26 to 50%)” in data set [2] (0.0039 mg/l of soil, no adjuvant).

As to `CN(Cc1ccc(Cl)nc1)C1=CC(=O)OC1` [(IV-1)], the Mortality entry in data set [1] (0.0156 mg/l of soil, adjuvant (I-3) 2000 mg/l, infection 13 d after application, 5 d after infection) is given as “D (from 76 to 100)”; in data set [1] (0.0156 mg/l of soil, adjuvant (I-3) 2000 mg/l, infection 13 d after application, 7 d after infection) it was “D (from 76 to 100)”; in data set [1] (0.0156 mg/l of soil, adjuvant (I-5) 2000 mg/l, infection 13 d after application, 5 d after infection) it was “D (from 76 to 100)”; in data set [1] (0.0156 mg/l of soil, adjuvant (I-5) 2000 mg/l, infection 13 d after application, 7 d after infection), “D (from 76 to 100)”; in data set [1] (0.0156 mg/l of soil, no adjuvant, infection 13 d after application, 5 d after infection) it was “C (from 51 to 75%)”; in data set [1] (0.0156 mg/l of soil, no adjuvant, infection 13 d after application, 7 d after infection), “C (from 51 to 75%)”. The Mortality entry in data set [1] (0.0313 mg/l of soil, adjuvant (I-3) 2000 mg/l, infection 7 d after application, 4 d after infection) was “D (from 76 to 100)”; in data set [1] (0.0313 mg/l of soil, adjuvant (I-3) 2000 mg/l, infection 7 d after application, 6 d after infection) it was “D (from 76 to 100)”; in data set [1] (0.0313 mg/l of soil, adjuvant (I-5) 2000 mg/l, infection 7 d after application, 4 d after infection) it was “D (from 76 to 100)”; in data set [1] (0.0313 mg/l of soil, adjuvant (I-5) 2000 mg/l, infection 7 d after application, 6 d after infection) it was “D (from 76 to 100)”; in data set [1] (0.0313 mg/l of soil, no adjuvant, infection 7 d after application, 4 d after infection) it was “C (from 51 to 75%)”; in data set [1] (0.0313 mg/l of soil, no adjuvant, infection 7 d after application, 6 d after infection), “C (from 51 to 75%)”.

`CCOC(=O)OC1=C(c2cc(C)ccc2C)C(=O)NC12CCC(OC)CC2` (centres unmarked) [(V-3)]: the Mortality entry in data set [1] (2 mg/l of soil, adjuvant (I-5) 1000 mg/l, infection 3 d after application, 7 d after infection) is reported as “C (from 51 to 75%)”; in data set [1] (2 mg/l of soil, adjuvant (I-5) 1000 mg/l, infection 5 d after application, 7 d after infection), “C (from 51 to 75%)”; in data set [1] (2 mg/l of soil, no adjuvant, infection 3 d after application, 7 d after infection), “B (from 26 to 50%)”; in data set [1] (2 mg/l of soil, no adjuvant, infection 5 d after application, 7 d after infection), “B (from 26 to 50%)”.

For the compound `N#Cc1nn(-c2c(Cl)cc(C(F)(F)F)cc2Cl)c(N)c1[S+]([O-])C(F)(F)F` (centres unmarked) [(VI-1), fipronil], the Mortality result in data set [3] (1 mg/l of soil, adjuvant (I-3) 1000 mg/l) is given as “B (from 26 to 50%)”; in data set [3] (1 mg/l of soil, adjuvant (I-5) 1000 mg/l) it was “C (from 51 to 75%)”; in data set [3] (1 mg/l of soil, no adjuvant), “A (from 0 to 25%)”; in data set [3] (5 mg/l of soil, adjuvant (I-3) 1000 mg/l), “D (from 76 to 100)”; in data set [3] (5 mg/l of soil, no adjuvant) it was “C (from 51 to 75%)”.
